The record followed here is patent publication US12577223B2, “Processes for preparing 2-(4-chlorophenyl)-n-((2-(2,6-dioxopiperidin-3-yl)-1-oxoisoindolin-5-yl)methyl)-2,2-difluoroacetamide” (Celgene Corporation, priority 2019, dated 2026).

This data set in a line: dynamic vapor sorption (DVS) analysis. The class given is physicochemical. The settings on record: relative humidity increased from about 0% to about 90% RH. The text has this: FIG. 5 provides a DVS isotherm plot of polymorph Form C of 2-(4-chlorophenyl)-N-((2-(2,6-dioxopiperidin-3-yl)-1-oxoisoindolin-5-yl)methyl)-2,2-difluoroacetamide.
In certain embodiments, polymorph Form C is characterized by dynamic vapor sorption analysis. A representative dynamic vapor sorption (DVS) isotherm plot is shown in
FIG. 5. […] In certain embodiments, polymorph Form C comprises less than 0.1% water as determined in a coulometric Karl Fischer (KF) titrator equipped with an oven sample processor set at 225° C.

For the molecule `O=C1CCC(N2Cc3cc(CNC(=O)C(F)(F)c4ccc(Cl)cc4)ccc3C2=O)C(=O)N1` (stereo not shown) [polymorph Form C, 2-(4-chlorophenyl)-N-((2-(2,6-dioxopiperidin-3-yl)-1-oxoisoindolin-5-yl)methyl)-2,2-difluoroacetamide], the water uptake result is reported as “about 0.6 % w/w”.
